Data on three compounds can be found in patent US9980943B2, “Methods of treating muscular dystrophy” (BOARD OF REGENTS OF THE NEVADA SYSTEM OF HIGHER EDUCATION, …, priority 2013, dated 2018).

Type in all cases: cell-based, mouse
Assay [1] has as its system α7 integrin (LacZ reporter in α7+/LacZ myotubes). Description: Myotube α7 integrin FDG assay (Burkin assay in myotubes, 96-well). The following applies: myotubes.
In assay [2] the test system is α7 integrin (LacZ reporter in α7βgal+/− myoblasts). Description: Myoblast α7+/LacZ integrin FDG assay (Burkin assay in myoblasts, 96-well). The following applies: α7+/LacZ myoblasts, 96-well.
The test system of assay [3] is β-galactosidase in CMV-LacZ C2C12 myotubes. Description: CMV-LacZ secondary screen in C2C12 myotubes (β-Gal stabilizing assay). The settings on record: C2C12 CMV-LacZ myotubes, fold relative to DMSO. The method, boiled down: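 Stable CMV-LacZ C2C12 clone; six-point curve 0.5–40 μM; duplicates.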
In assay [4] the test system is β-galactosidase in CMV-LacZ C2C12 myoblasts. The assay is described as follows: CMV-LacZ secondary screen in C2C12 myoblasts (β-Gal stabilizing assay). The following applies: CMV-LacZ C2C12 myoblasts. The method, boiled down:
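CMV-LacZ C2C12 line (clonal, FDG-screened); myoblasts/myotubes dosed 0.5–40 μM (0.5, 1, 5, 10, 20, 40 μM); n=2 per point; β-gal stabilization read-out.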

In the case of `COc1ccc(OC)c(NC(=O)CN2CCC(NC(=O)c3ccccc3C)CC2)c1` [MLS001212882-01], the “Burkin Assay in Myotubes, α7 integrin LacZ reporter signal relative to DMSO” value in assay [1] (0.5 uM) turned out to be 0.9814; in assay [1] (1 uM) it was 1.023; in assay [1] (5 uM), 0.9072; in assay [1] (10 uM) it was 0.8877; in assay [1] (20 uM) it was 0.8421; in assay [1] (40 uM), 0.9107. The “Burkin Assay in Myoblasts, signal relative to DMSO” value in assay [2] (0.5 uM) is given as 1.0132; in assay [2] (1 uM), 1.07; in assay [2] (5 uM) it was 1.049; in assay [2] (10 uM) it was 0.9069; in assay [2] (20 uM), 1.068; in assay [2] (40 uM) it was 1.048. Moreover, the “CMV-LACZ in Myotubes, signal relative to DMSO” value is 1.0238 in assay [3] (0.5 uM); 0.8705 in assay [3] (1 uM); 1.0963 in assay [3] (5 uM); 1.1133 in assay [3] (10 uM); 1.1471 in assay [3] (20 uM); 1.3024 in assay [3] (40 uM). Moreover, the “CMV-LACZ in Myoblasts (β-galactosidase activity relative to DMSO)” value was determined as 1.1409 in assay [4] (0.5 uM); 1.1291 in assay [4] (1 uM); 0.9792 in assay [4] (5 uM); 1.0086 in assay [4] (10 uM); 1.3230 in assay [4] (20 uM); 1.0326 in assay [4] (40 uM).

`CCN(CC)C(=O)c1sc2nc(-c3ccc(OC)cc3)cn2c1C` [MLS000089464-01]: the “Burkin Assay in Myotubes, α7 integrin LacZ reporter signal relative to DMSO” value was found to be 1.063 in assay [1] (0.5 uM); 1.029 in assay [1] (1 uM); 1.128 in assay [1] (5 uM); 0.9917 in assay [1] (10 uM); 0.9545 in assay [1] (20 uM); 0.8373 in assay [1] (40 uM). The “Burkin Assay in Myoblasts, signal relative to DMSO” value in assay [2] (0.5 uM) is listed as 0.9965; in assay [2] (1 uM), 0.9802; in assay [2] (5 uM) it was 0.934; in assay [2] (10 uM), 0.7825; in assay [2] (20 uM), 0.5631; in assay [2] (40 uM) it was 0.3911. In addition, the “CMV-LACZ in Myotubes, signal relative to DMSO” value amounted to 0.9716 in assay [3] (0.5 uM); 1.3716 in assay [3] (1 uM); 0.9400 in assay [3] (5 uM); 0.9529 in assay [3] (10 uM); 1.3067 in assay [3] (20 uM); 1.0178 in assay [3] (40 uM). Further, the “CMV-LACZ in Myoblasts (β-galactosidase activity relative to DMSO)” value in assay [4] (0.5 uM) is reported as 0.9117; in assay [4] (1 uM), 0.9160; in assay [4] (5 uM), 0.9372; in assay [4] (10 uM), 1.1969; in assay [4] (20 uM), 0.7500; in assay [4] (40 uM), 0.5274.

`CN(CCC1CCCCO1)C(=O)CCc1nnc(CCCCc2ccccc2)o1` (stereo not drawn) [MLS000735021-01]: the “Burkin Assay in Myotubes, α7 integrin LacZ reporter signal relative to DMSO” value is 1.013 in assay [1] (0.5 uM); 1.009 in assay [1] (1 uM); 0.9137 in assay [1] (5 uM); 1.006 in assay [1] (10 uM); 0.8444 in assay [1] (20 uM); 0.8523 in assay [1] (40 uM). The “Burkin Assay in Myoblasts, signal relative to DMSO” value in assay [2] (0.5 uM) was 0.9402; in assay [2] (1 uM), 0.9246; in assay [2] (5 uM) it was 0.9982; in assay [2] (10 uM), 0.9765; in assay [2] (20 uM) it was 1.025; in assay [2] (40 uM) it was 0.9941. Also, the “CMV-LACZ in Myotubes, signal relative to DMSO” value in assay [3] (0.5 uM) is recorded as 1.0105; in assay [3] (1 uM), 1.0221; in assay [3] (5 uM) it was 0.9548; in assay [3] (10 uM) it was 0.9616; in assay [3] (20 uM) it was 1.0378; in assay [3] (40 uM), 1.0778. Also, the “CMV-LACZ in Myoblasts (β-galactosidase activity relative to DMSO)” value worked out at 0.8683 in assay [4] (0.5 uM); 1.1646 in assay [4] (1 uM); 0.9756 in assay [4] (5 uM); 0.9907 in assay [4] (10 uM); 1.2130 in assay [4] (20 uM); 0.9767 in assay [4] (40 uM).
